MIC data for 22 compounds are collected here from patent US4447422A, “Penicillins and compositions containing them” (Beecham Group p.1.c., priority 1981, dated 1984).

One assay relates to E coli NCTC 10418. Nature of the assay: antibacterial activity (MIC). Format: cell-based. To be noted: Escherichia coli, NCTC10418; Table 2; gram negative organism E. coli NCTC 10418.
The next assay concerns Staph aureus Oxford. Nature of the assay: antibacterial activity (MIC). The assay is classed as cell-based. To be noted: Staphylococcus aureus; Table 2; gram positive organism Staph. aureus Oxford; read-out: MIC.

≈ marks a conversion by molar mass, not a printed value. Structures can show the parent of a compound that is named as a salt.

Take `COCCCNc1ncc(C(=O)N[C@@H](C(=O)N[C@@H]2C(=O)N3[C@@H]2SC(C)(C)[C@@H]3C(=O)O)c2ccccc2)c(O)n1` [Example 12, 6β-[D-2-(2-[3-methoxypropyl-1-amino]-4-hydroxypyrimidine-5-carbonylamino)-2-phenyl] acetamido penicillanic acid, disodium salt]: the minimal inhibitory concentration (MIC) with E coli NCTC 10418 came to 5 µg/mL; with Staph aureus Oxford it was 1.2 µg/mL.
In the case of `CCCCCCNc1ncc(C(=O)N[C@@H](C(=O)N[C@@H]2C(=O)N3[C@@H]2SC(C)(C)[C@@H]3C(=O)O)c2ccccc2)c(O)n1` [Example 19, 6β-[D-2-(2-n-hexylamino-4-hydroxypyrimidine-5-carbonylamino)-2-phenyl] acetamido penicillanic acid, disodium salt], the results for the minimum inhibitory concentration (MIC) in the assay with E coli NCTC 10418 and in the assay with Staph aureus Oxford were 1.2 µg/mL and 0.5 µg/mL, respectively.
As for `CC1(C)S[C@@H]2[C@H](NC(=O)[C@H](NC(=O)c3cnc(NCc4ccc(Cl)cc4)nc3O)c3ccccc3)C(=O)N2[C@H]1C(=O)O` [Example 6, 6β-D-[2-(2-[4Chlorobenzylamino]-4-hydroxypyrimidine-5-carbonylamino)-2-phenyl] acetamido penicillanic acid], the results for the MIC with E coli NCTC 10418 and in the assay with Staph aureus Oxford were 5 µg/mL (≈ 8.18 µM) and 0.2 µg/mL (≈ 0.327 µM), respectively.
As for `CC1(C)S[C@@H]2[C@H](NC(=O)[C@H](NC(=O)c3cnc(NCCc4ccccc4)nc3O)c3ccc(O)cc3)C(=O)N2[C@H]1C(=O)O` [Example 5, 6β-[D-2-(2-(2-phenylethyl-1-amino)-4-hydroxypyrimidine-5-carbonylamino)-2-(4-hydroxyphenyl)] acetamido penicillanic acid], the minimum inhibitory concentration (MIC) came out at 5 µg/mL (≈ 8.24 µM) in the assay with E coli NCTC 10418 and 1.2 µg/mL (≈ 1.98 µM) with Staph aureus Oxford.
With `CC1(C)S[C@@H]2[C@H](NC(=O)[C@H](NC(=O)c3cnc(NCCCc4ccccc4)nc3O)c3ccccc3)C(=O)N2[C@H]1C(=O)O` [Example 3, 6β-[D-2-(2-(3-phenylpropyl-1-amino)-4-hydroxypyrimidine-5-carbonylamino)-2-phenyl] acetamido penicillanic acid], the MIC with E coli NCTC 10418 was 5 µg/mL (≈ 8.27 µM); in the assay on Staph aureus Oxford, 1.2 µg/mL (≈ 1.98 µM).
Take `CCCCCNc1ncc(C(=O)N[C@@H](C(=O)N[C@@H]2C(=O)N3[C@@H]2SC(C)(C)[C@@H]3C(=O)O)c2ccccc2)c(O)n1` [Example 18, 6β-[D-2-(2-n-Pentylamino-4-hydroxypyrimidine-5-carbonylamino)-2-phenyl] acetamido penicillanic acid, disodium salt]: the minimum inhibitory concentration (MIC) in the assay on E coli NCTC 10418 and with Staph aureus Oxford was 1.25 µg/mL throughout.
Turning to `CC1(C)S[C@@H]2[C@H](NC(=O)[C@H](NC(=O)c3cnc(NCc4ccc(S(N)(=O)=O)cc4)nc3O)c3ccccc3)C(=O)N2[C@H]1C(=O)O` [Example 7, 6β-[D-2-(2-[4-sulphonamidobenzylamino]-4-hydroxypyrimidine-5-carbonylamino)-2-phenyl]acetamido penicillanic acid, disodium salt], the results for the MIC in the assay with E coli NCTC 10418 and in the assay with Staph aureus Oxford were 10 µg/mL and 2.5 µg/mL, respectively.
As for `COc1ccc(CNc2ncc(C(=O)N[C@@H](C(=O)N[C@@H]3C(=O)N4[C@@H]3SC(C)(C)[C@@H]4C(=O)O)c3ccccc3)c(O)n2)cc1` [Example 9, 6β-[D-2-(2-[4-Methoxybenzylamino]-4-hydroxypyrimidine-5-carbonylamino)-2-phenyl] acetamido penicillanic acid, disodium salt], the MIC in the assay on E coli NCTC 10418 was 5 µg/mL; with Staph aureus Oxford, 0.25 µg/mL.
For the compound `CCCCNc1ncc(C(=O)N[C@@H](C(=O)N[C@@H]2C(=O)N3[C@@H]2SC(C)(C)[C@@H]3C(=O)O)c2ccc(O)cc2)c(O)n1` [Example 17, 6β-[D-2-(2-n-Butylamino-4-hydroxypyrimidine-5-carbonylamino)-2-(4-hydroxyphenyl)] acetamido penicillanic acid, disodium salt], the minimal inhibitory concentration (MIC) in the assay with E coli NCTC 10418 came out at 5 µg/mL; in the assay on Staph aureus Oxford, 2.5 µg/mL.
As for `CC1(C)S[C@@H]2[C@H](NC(=O)[C@H](NC(=O)c3cnc(NC(=O)OCc4ccccc4)nc3O)c3ccccc3)C(=O)N2[C@H]1C(=O)O` [Example 25, 6β-D-2-(2-benzyloxycarbonylamino-4-hydroxypyrimidine-5-carbonylamino-2-phenyl] acetamido penicillanic acid, disodium salt], the MIC with E coli NCTC 10418 came out at 2.5 µg/mL; in the assay with Staph aureus Oxford it was 0.2 µg/mL.
Take `CC1(C)S[C@@H]2[C@H](NC(=O)[C@H](NC(=O)c3cnc(NC(=O)c4ccccc4)nc3O)c3ccccc3)C(=O)N2[C@H]1C(=O)O` [Example 23, 6β-[D-2-(2-benzoylamino-4-hydroxypyrimidine-5-carbonylamino)-2-phenyl] acetamido penicillanic acid, disodium salt]: the minimum inhibitory concentration (MIC) against E coli NCTC 10418 is 5 µg/mL; in the assay with Staph aureus Oxford it was 0.5 µg/mL.
For the compound `CC1(C)S[C@@H]2[C@H](NC(=O)[C@H](NC(=O)c3cnc(NCc4ccccc4)nc3O)c3ccc(O)cc3)C(=O)N2[C@H]1C(=O)O` [Example 4, 6β-[D-2-(2-Benzylamino-4-hydroxypyrimidine-5-carbonylamino)-2-(4-hydroxyphenyl)] acetamido penicillanic acid disodium salt], the MIC turned out to be 5 µg/mL against E coli NCTC 10418 and 1.25 µg/mL in the assay with Staph aureus Oxford.
Turning to `CCCNc1ncc(C(=O)N[C@@H](C(=O)N[C@@H]2C(=O)N3[C@@H]2SC(C)(C)[C@@H]3C(=O)O)c2ccccc2)c(O)n1` [Example 15, 6β-[D-2-(2-n-propylamino-4-hydroxypyrimidine-5-carbonylamino)-2-phenyl] acetamido penicillanic acid, disodium salt], the MIC in the assay with E coli NCTC 10418 worked out at 2.5 µg/mL; in the assay on Staph aureus Oxford it was 0.5 µg/mL.
Turning to `CCCCCCCCNc1ncc(C(=O)N[C@@H](C(=O)N[C@@H]2C(=O)N3[C@@H]2SC(C)(C)[C@@H]3C(=O)O)c2ccccc2)c(O)n1` [Example 20, 6β-[D-2-(2-n-Octylamino-4-hydroxypyrimidine-5-carbonylamino)-2-phenyl] acetamido penicillanic acid, disodium salt], the results for the minimal inhibitory concentration (MIC) with E coli NCTC 10418 and in the assay on Staph aureus Oxford were 10 µg/mL and 2.5 µg/mL, respectively.
Take `COCCNc1ncc(C(=O)N[C@@H](C(=O)N[C@@H]2C(=O)N3[C@@H]2SC(C)(C)[C@@H]3C(=O)O)c2ccccc2)c(O)n1` [Example 13, 6β-[D-2-(2-Methoxyethyl-1-amino]-4-hydroxypyrimidine-5-carbonylamino)-2-phenyl] acetamido penicillanic acid, disodium salt]: the minimum inhibitory concentration (MIC) was 5 µg/mL in the assay with E coli NCTC 10418 and 0.5 µg/mL with Staph aureus Oxford.
As for `CCCC(=O)Nc1ncc(C(=O)N[C@@H](C(=O)N[C@@H]2C(=O)N3[C@@H]2SC(C)(C)[C@@H]3C(=O)O)c2ccccc2)c(O)n1` [Example 22, 6β-[D-2-(2-n-butyrylamino-4-hydroxypyrimidine-5-carbonylamino)-2-phenyl] acetamido penicillanic acid, disodium salt], the minimum inhibitory concentration (MIC) came out at 5 µg/mL against E coli NCTC 10418 and 0.5 µg/mL with Staph aureus Oxford.
Consider `C=CCNc1ncc(C(=O)N[C@@H](C(=O)N[C@@H]2C(=O)N3[C@@H]2SC(C)(C)[C@@H]3C(=O)O)c2ccccc2)c(O)n1` [Example 21, 6β-[D-2-(2-Allylamino-4-hydroxypyrimidine-5-carbonylamino)2-phenyl] acetamido penicillanic acid, disodium salt], for which the figures for the MIC in the assay with E coli NCTC 10418 and with Staph aureus Oxford were 5 µg/mL and 0.2 µg/mL, respectively.
Turning to `CC(C)COC(=O)Nc1ncc(C(=O)N[C@@H](C(=O)N[C@@H]2C(=O)N3[C@@H]2SC(C)(C)[C@@H]3C(=O)O)c2ccccc2)c(O)n1` [Example 24, 6β-D-2-(2-Isobutyloxycarbonylamino-4-hydroxypyrimidine-5-carbonylamino)-2-phenyl]acetamido penicillanic acid, disodium salt], the minimal inhibitory concentration (MIC) against E coli NCTC 10418 amounted to 5 µg/mL; with Staph aureus Oxford, 0.5 µg/mL.
Turning to `COc1cc(CNc2ncc(C(=O)N[C@@H](C(=O)N[C@@H]3C(=O)N4[C@@H]3SC(C)(C)[C@@H]4C(=O)O)c3ccccc3)c(O)n2)ccc1O` [Example 8, 6β-[D-2-(2[4-Hydroxy-3-methoxybenzylamino]-4-hydroxypyrimidine-5-carbonylamino)-2-phenyl] acetamido penicillanic acid, disodium salt], the minimal inhibitory concentration (MIC) in the assay on E coli NCTC 10418 worked out at 10 µg/mL; in the assay on Staph aureus Oxford it was 1.2 µg/mL.
On to `CCSCCNc1ncc(C(=O)N[C@@H](C(=O)N[C@@H]2C(=O)N3[C@@H]2SC(C)(C)[C@@H]3C(=O)O)c2ccc(O)cc2)c(O)n1` [Example 14, 6β-[D-2-(2-[2-(ethylthio)ethyl-1-amino]-4-hydroxypyrimidine-5-carbonylamino)-2-(4-hydroxyphenyl)]acetamidopenicillanic acid, disodium salt], for which the minimal inhibitory concentration (MIC) against E coli NCTC 10418 came out at 2.5 µg/mL; in the assay with Staph aureus Oxford, 1.2 µg/mL.
With `CC1(C)S[C@@H]2[C@H](NC(=O)[C@H](NC(=O)c3cnc(NCc4ccco4)nc3O)c3ccccc3)C(=O)N2[C@H]1C(=O)O` [Example 10, 6β-[D-2-(2-Furfurylamino-4-hydroxypyrimidine-5-carbonylamino)-2-phenyl] acetamido penicillanic acid, disodium salt], the MIC turned out to be 5 µg/mL with E coli NCTC 10418 and 1.2 µg/mL in the assay on Staph aureus Oxford.
`CNc1ncc(C(=O)N[C@@H](C(=O)N[C@@H]2C(=O)N3[C@@H]2SC(C)(C)[C@@H]3C(=O)O)c2ccccc2)c(O)n1` [Example 11, 6β-D-2-(2-Methylamino-4-hydroxypyrimidine-5-carbonylamino)-2-phenyl] acetamido penicillanic acid, disodium salt]: the MIC against E coli NCTC 10418 was found to be 25 µg/mL; with Staph aureus Oxford it was 2.5 µg/mL.
